Among the data in PubChem BioAssay AID214 (DTP/NCI, 2004) are T/C values, retold here.

The subject of this assay is B6C3F1 mice, colon carcinoma 38 s.c., T/C. The assay can be described thus: NCI In Vivo Anticancer Drug Screen. Data for tumor model Colon Carcinoma 38 (subcutaneous) in B6C3F1 mice. Conditions: endpoint: median tumor weight (est.), higher = larger tumour. The procedure: The antitumor activity of compounds was measured in mice bearing transplantable tumors. Survival or tumor size were measured and the results are expressed as the measurement made in the treated group (T) divided by the measurement made in the vehicle treated control group (C). The tumor model used in this assay is Colon Carcinoma 38 (subcutaneous) in B6C3F1 mice

Where [1] appears, read: dose: 50.0 mg/kg/injection, schedule: Q07DX002 (ip), vehicle: Klucel (hydroxypropylcellulose) (HPC).
[2] abbreviates: dose: 100.0 mg/kg/injection, schedule: Q07DX002 (ip), vehicle: Klucel (hydroxypropylcellulose) (HPC).
[3] abbreviates: dose: 100.0 mg/kg/injection, schedule: Q07DX002 (ip), vehicle: saline.
The mark [4] stands for this setting: dose: 200.0 mg/kg/injection, schedule: Q07DX002 (ip), vehicle: saline.
[5] abbreviates: dose: 100.0 mg/kg/injection, schedule: Q07DX002 (ip), vehicle: saline with Tween-80.
[6] abbreviates: dose: 200.0 mg/kg/injection, schedule: Q07DX002 (ip), vehicle: saline with Tween-80.
Where [7] appears, read: dose: 6.25 mg/kg/injection, schedule: Q07DX002 (ip), vehicle: saline.
Where [8] appears, read: dose: 12.5 mg/kg/injection, schedule: Q07DX002 (ip), vehicle: saline.
[9] abbreviates: dose: 25.0 mg/kg/injection, schedule: Q07DX002 (ip), vehicle: saline.
Setting [10] is: dose: 50.0 mg/kg/injection, schedule: Q07DX002 (ip), vehicle: saline.

Several values for one entry are separate records, joined by “and”; a condition that tells them apart may be missing. Identical values can stand only once. Records with an inconclusive call do not appear.

On to `Cc1cc(N/N=C/c2ccccn2)nc2ccccc12`, for which the T/C is 65 % of control under setting [1]; 90 % of control under setting [2]; 74 % of control (dose: 200.0 mg/kg/injection, schedule: Q07DX002 (ip), vehicle: Klucel (hydroxypropylcellulose) (HPC)).

As to `Cc1c(N)nc([C@H](CC(N)=O)NC[C@H](N)C(N)=O)nc1C(=O)N[C@H](C(=O)N[C@H](C)[C@@H](O)CC(=O)N[C@H](C(=O)NC(O[C@@H]1O[C@@H](C)[C@@H](N)[C@@H](O)[C@H]1O)C(O)c1nc(-c2nc(C(=O)NCCCCN)cs2)cs1)[C@@H](C)O)[C@@H](O[C@@H]1O[C@@H](CO)[C@@H](O)[C@H](O)[C@@H]1O[C@H]1O[C@H](CO)[C@@H](O)[C@H](OC(N)=O)[C@@H]1O)c1c[nH]cn1` (some centres not stated), the T/C was 54 % of control (dose: 4.0 mg/kg/injection, schedule: Q07DX002 (ip), vehicle: saline); 35 % of control (dose: 8.0 mg/kg/injection, schedule: Q07DX002 (ip), vehicle: saline); 13 % of control (dose: 16.0 mg/kg/injection, schedule: Q07DX002 (ip), vehicle: saline); 25 % of control (dose: 32.0 mg/kg/injection, schedule: Q07DX002 (ip), vehicle: saline); 9 % of control (dose: 64.0 mg/kg/injection, schedule: Q07DX002 (ip), vehicle: saline).

Turning to `CC(=O)OC1C(O)C(C)OC(OC2C(OC(=O)C3CCC4C(C3)OC3(CC(OC(=O)/C=C/c5ccccc5)C(C)CO3)C43CO3)OC(C)C(O)C2OC(C)=O)C1O` (configuration not stated), the T/C was 93 % of control (dose: 3.75 mg/kg/injection, schedule: Q07DX002 (ip), vehicle: distilled water + Tween-80); 95 % of control (dose: 7.5 mg/kg/injection, schedule: Q07DX002 (ip), vehicle: distilled water + Tween-80); 64 % of control (dose: 15.0 mg/kg/injection, schedule: Q07DX002 (ip), vehicle: distilled water + Tween-80); 168 % of control (dose: 30.0 mg/kg/injection, schedule: Q07DX002 (ip), vehicle: distilled water + Tween-80); 168 % of control (dose: 60.0 mg/kg/injection, schedule: Q07DX002 (ip), vehicle: distilled water + Tween-80).

Take `O=C(COc1cccc2c(=O)cc(-c3ccccc3)oc12)OCCN1CCOCC1`: the T/C is, setting by setting: under setting [3], 81 % of control; under setting [4], 43 % of control.

For the compound `Nc1n[nH]c2ccccc12`, the T/C was 105 % of control (dose: 50.0 mg/kg/injection, schedule: Q07DX002 (ip), vehicle: acid diluted with saline); 112 % of control (dose: 100.0 mg/kg/injection, schedule: Q07DX002 (ip), vehicle: acid diluted with saline); 84 % of control (dose: 200.0 mg/kg/injection, schedule: Q07DX002 (ip), vehicle: acid diluted with saline); 59 % of control (dose: 400.0 mg/kg/injection, schedule: Q07DX002 (ip), vehicle: acid diluted with saline); 74 % of control (dose: 800.0 mg/kg/injection, schedule: Q07DX002 (ip), vehicle: acid diluted with saline).

Consider `CCCCCCCCCCCCCCCCCCCCCC(=O)Nc1ccn(C2OC(CO)C(O)C2O)c(=O)n1` (configuration not stated), for which the T/C is 83 % of control under setting [5] and 35 % of control under setting [6].

Regarding `C(=N/NC1=NCCN1)/c1c2ccccc2c(/C=N\NC2=NCCN2)c2ccccc12`, the T/C was 100 % of control under setting [7]; 55 % of control under setting [8]; 112 % of control under setting [9]; 81 % of control under setting [10]; 36 % of control under setting [3].

In the case of `CN(CCN(C)C(=O)CCOS(C)(=O)=O)C(=O)CCOS(C)(=O)=O`, the T/C was 121 % of control under setting [8]; 92 % of control under setting [9]; 51 % of control under setting [10]; 51 % of control under setting [3]; 12 % of control under setting [4].

Regarding `Cc1ccc(NCCN(C)C)c2c(=O)c3cc(O)ccc3sc12`, the T/C was 86 % of control (dose: 25.0 mg/kg/injection, schedule: Q07DX002 (ip), vehicle: Klucel (hydroxypropylcellulose) (HPC)); 90 % of control and 210 % of control under setting [1]; 67 % of control under setting [2]; 48 % of control (dose: 400.0 mg/kg/injection, schedule: Q07DX002 (ip), vehicle: Klucel (hydroxypropylcellulose) (HPC)).

Turning to `S=C(NCNC(=S)c1ccncc1)c1ccncc1`, the T/C was 70 % of control under setting [5]; 104 % of control under setting [6]; 70 % of control (dose: 400.0 mg/kg/injection, schedule: Q07DX002 (ip), vehicle: saline with Tween-80); 66 % of control (dose: 800.0 mg/kg/injection, schedule: Q07DX002 (ip), vehicle: saline with Tween-80).

As to `NC(CCC(=O)NC(CS)C(=O)NCC(=O)O)C(=O)O` (configuration not stated), the T/C reads like this: under setting [10], 89 % of control; under setting [3], 87 % of control; under setting [4], 102 % of control; (dose: 400.0 mg/kg/injection, schedule: Q07DX002 (ip), vehicle: saline) 88 % of control; (dose: 800.0 mg/kg/injection, schedule: Q07DX002 (ip), vehicle: saline) 113 % of control.

As to `CC1CC(C)CC(C)C(O)/C(C#N)=C/C=C/CC(C2CCCC2C(=O)O)OC(=O)CC(O)C(C)C1` (configuration not stated), the T/C is 83 % of control (dose: 4.0 mg/kg/injection, schedule: Q07DX002 (ip), vehicle: Klucel (hydroxypropylcellulose) (HPC)); 81 % of control (dose: 8.0 mg/kg/injection, schedule: Q07DX002 (ip), vehicle: Klucel (hydroxypropylcellulose) (HPC)); 108 % of control (dose: 16.0 mg/kg/injection, schedule: Q07DX002 (ip), vehicle: Klucel (hydroxypropylcellulose) (HPC)); 115 % of control (dose: 32.0 mg/kg/injection, schedule: Q07DX002 (ip), vehicle: Klucel (hydroxypropylcellulose) (HPC)).

On to `CCC(C(=O)O)C(=O)O.[NH2-].[NH2-].[Pt+2]`, for which the T/C reads like this: (dose: 50.0 mg/kg/injection, schedule: Q07DX002 (ip), vehicle: suspension in saline) 61 % of control; (dose: 100.0 mg/kg/injection, schedule: Q07DX002 (ip), vehicle: suspension in saline) 45 % of control; under setting [4], 62 % of control.

On to `Cc1cc(NS(=O)(=O)c2ccc(N=Nc3cc(N=Nc4ccc(S(=O)(=O)Nc5cc(C)nc(C)n5)cc4)c4c(NC(=O)C(Cl)Cl)cccc4c3OC(=O)C(Cl)Cl)cc2)nc(C)n1` (tested in a mixture with another compound), for which the T/C (dose: 25.0 mg/kg/injection, schedule: Q07DX002 (ip), vehicle: suspension in saline) is 111 % of control and the T/C (dose: 400.0 mg/kg/injection, schedule: Q07DX002 (ip), vehicle: suspension in saline) is 114 % of control.

Take `CC(C)CCC(=O)c1ccoc1`: the T/C reads like this: (dose: 0.25 mg/kg/injection, schedule: Q03HX006 (ip), vehicle: saline with Tween-80) 56 % of control; (dose: 0.5 mg/kg/injection, schedule: Q03HX006 (ip), vehicle: saline with Tween-80) 56 % of control; (dose: 1.0 mg/kg/injection, schedule: Q03HX006 (ip), vehicle: saline with Tween-80) 81 % of control; (dose: 2.0 mg/kg/injection, schedule: Q03HX006 (ip), vehicle: saline with Tween-80) 87 % of control.

On to `OCC(O)C(O)C(O)C(O)CO` (configuration not stated), for which the T/C (dose: 75.0 mg/kg/injection, schedule: Q07DX002 (ip), vehicle: saline) was 90 % of control; the T/C (dose: 150.0 mg/kg/injection, schedule: Q07DX002 (ip), vehicle: saline) was 66 % of control; the T/C (dose: 300.0 mg/kg/injection, schedule: Q07DX002 (ip), vehicle: saline) was 111 % of control; the T/C (dose: 600.0 mg/kg/injection, schedule: Q07DX002 (ip), vehicle: saline) is 92 % of control; the T/C (dose: 1200.0 mg/kg/injection, schedule: Q07DX002 (ip), vehicle: saline) is 86 % of control.

`Cc1cc(NCCCN(C)C)c2ccc3c(ccc4c(NCCCN(C)C)cc(C)nc43)c2n1`: the T/C by setting is: (dose: 0.78 mg/kg/injection, schedule: Q07DX002 (ip), vehicle: saline) 97 % of control; (dose: 1.56 mg/kg/injection, schedule: Q07DX002 (ip), vehicle: saline) 91 % of control; (dose: 3.12 mg/kg/injection, schedule: Q07DX002 (ip), vehicle: saline) 115 % of control; under setting [7], 100 % of control.
